In the supplement of paper PMC4932681:
Structures can show the parent of a compound that is named as a salt.

Tests used:
[1] = tested on: BT-474 Tam1; assay: drug sensitivity score (DSS) (DSS (dimensionless)); higher = more sensitive; extreme values may be limits of the assay; settings: 4-OH-tamoxifen in medium 1 µM; 72 h
Description: (§1)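 FIMM FO2B library drugs were tested at 5 concentrations (10,000-fold range) for 72 h, with CellTiter-Glo viability normalised to DMSO and benzethonium chloride controls. The Drug Sensitivity Score (DSS) is computed from the fitted logistic dose-response curve (area-based; 0 = inactive). Resistant lines and the 'in 1µM tamoxifen' arms were tested in 1 µM 4-OH-tamoxifen.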

[2] = tested on: BT-474 Tam2; assay: as above; settings: 4-OH-tamoxifen in medium 1 µM; 72 h
Description: as §1

[3] = tested on: BT-474; assay: as above; settings: 72 h
Description: as §1

[4] = tested on: MCF-7 Tam1; assay: as above; settings: 4-OH-tamoxifen in medium 1 µM; 72 h
Description: as §1

[5] = tested on: MCF-7; assay: as above; settings: 72 h
Description: as §1

[6] = tested on: T-47D Tam1; assay: as above; settings: 4-OH-tamoxifen in medium 1 µM; 72 h
Description: as §1

[7] = tested on: T-47D Tam2; assay: as above; settings: 4-OH-tamoxifen in medium 1 µM; 72 h
Description: as §1

[8] = tested on: T-47D; assay: as above; settings: 72 h
Description: as §1

[9] = tested on: ZR-75-1 Tam1; assay: as above; settings: 4-OH-tamoxifen in medium 1 µM; 72 h
Description: as §1

[10] = tested on: ZR-75-1 Tam2; assay: as above; settings: 4-OH-tamoxifen in medium 1 µM; 72 h
Description: as §1

[11] = tested on: ZR-75-1; assay: as above; settings: 72 h
Description: as §1

[12] = tested on: BT-474 Tam1; assay: relative IC50 (midpoint of fitted logistic curve, plateau may be below 50% inhibition; CellTiter-Glo viability); higher = less potent; settings: 4-OH-tamoxifen in medium 1 µM; 72 h
Description: (§2)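 FIMM FO2B library drugs were plated at 5 concentrations spanning a 10,000-fold range in 384-well plates. Cells were incubated for 72 h at 37 °C and viability was read by CellTiter-Glo, normalised to DMSO (0% inhibition) and 100 µM benzethonium chloride (100% inhibition). IC50 values come from logistic dose-response fits (Breeze pipeline). Tamoxifen-resistant lines and the 'in 1µM tamoxifen' parental arms were tested in medium with 1 µM 4-OH-tamoxifen.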

[13] = tested on: BT-474 Tam2; assay: as above; settings: 4-OH-tamoxifen in medium 1 µM; 72 h
Description: as §2

[14] = tested on: BT-474; assay: as above; settings: 72 h
Description: as §2

[15] = tested on: MCF-7; assay: as above; settings: 72 h
Description: as §2

[16] = tested on: T-47D Tam2; assay: as above; settings: 4-OH-tamoxifen in medium 1 µM; 72 h
Description: as §2

[17] = tested on: T-47D; assay: as above; settings: 4-OH-tamoxifen in medium 0 µM; 72 h
Description: as §2

[18] = tested on: ZR-75-1; assay: as above; settings: 72 h
Description: as §2

[19] = tested on: MCF-7 Tam1; assay: as above; settings: 4-OH-tamoxifen in medium 1 µM; 72 h
Description: as §2

[20] = tested on: T-47D Tam1; assay: as above; settings: 4-OH-tamoxifen in medium 1 µM; 72 h
Description: as §2

[21] = tested on: ZR-75-1 Tam1; assay: as above; settings: 4-OH-tamoxifen in medium 1 µM; 72 h
Description: as §2

[22] = tested on: ZR-75-1 Tam2; assay: as above; settings: 4-OH-tamoxifen in medium 1 µM; 72 h
Description: as §2

SMILES | drug sensitivity score [1] | drug sensitivity score [2] | drug sensitivity score ([3]; 4-OH-tamoxifen in medium 0 µM) | drug sensitivity score ([3]; 4-OH-tamoxifen in medium 1 µM) | drug sensitivity score [4] | drug sensitivity score ([5]; 4-OH-tamoxifen in medium 0 µM) | drug sensitivity score ([5]; 4-OH-tamoxifen in medium 1 µM) | drug sensitivity score [6] | drug sensitivity score [7] | drug sensitivity score ([8]; 4-OH-tamoxifen in medium 0 µM) | drug sensitivity score ([8]; 4-OH-tamoxifen in medium 1 µM) | drug sensitivity score [9] | drug sensitivity score [10] | drug sensitivity score ([11]; 4-OH-tamoxifen in medium 0 µM) | drug sensitivity score ([11]; 4-OH-tamoxifen in medium 1 µM) | relative IC50 [12] [nM] | relative IC50 [13] [µM] | relative IC50 ([14]; 4-OH-tamoxifen in medium 0 µM) [µM] | relative IC50 ([14]; 4-OH-tamoxifen in medium 1 µM) [µM] | relative IC50 ([15]; 4-OH-tamoxifen in medium 1 µM) [µM] | relative IC50 [16] [µM] | relative IC50 [17] [µM] | relative IC50 ([18]; 4-OH-tamoxifen in medium 0 µM) [µM] | relative IC50 ([18]; 4-OH-tamoxifen in medium 1 µM) [µM] | relative IC50 [19] [µM] | relative IC50 ([15]; 4-OH-tamoxifen in medium 0 µM) [µM] | relative IC50 [20] [µM] | relative IC50 [21] [µM] | relative IC50 [22] [µM]
CC/C(=C(\c1ccccc1)c1ccc(OCCN(C)C)cc1)c1ccccc1 [Tamoxifen citrate] | 6.73 | 4.61 | 1.53 | 5.05 | 0.973 | 0 | 3.99 | 0.576 | 2.54 | 0 | 0 | 0.0116 | 0.865 | 0 | 1.69 | 2390 | 3.61 | 3.47 | 3.2 | 3.48 | 3.29 | > 10 | > 10 | 3.54 |  |  |  |  | 
CCCC(CCC)C(=O)O [Valproic acid] | 0 | 0 | 0 | 0 | 0 | 0 | 0 | 0 | 1.73 | 0 | 0.0101 | 0 | 0 | 0 | 0 | > 10000 | > 10 | > 10 | > 10 | > 10 |  | > 10 | > 10 | > 10 | > 10 | > 10 | > 10 | > 10 | > 10
